molecular target: PD-1/PD-L1 (Homo sapiens (Human), UniProt Q9NZQ7); assay: PD-1/PD-L1 Homogeneous Time-Resolved Fluorescence (HTRF) binding assay; details: 3 nM PD1, 10 nM PD-L1, 25° C., PBS pH 7.4
Procedure: PD-1/PD-L1 Homogeneous Time-Resolved Fluorescence (HTRF) Binding Assay
The assays were conducted in a standard black 384-well polystyrene plate with a final volume of 20 μL. Inhibitors were first serially diluted in DMSO and then added to the plate wells before the addition of other reaction components. The final concentration of DMSO in the assay was 1%. The assays were carried out at 25° C. in the PBS buffer (pH 7.4) with 0.05% Tween-20 and 0.1% BSA. Recombinant human PD-L1 protein (19-238) with a Histag at the C-terminus was purchased from AcroBiosystems (PD1-H5229). Recombinant human PD-1 protein (25-167) with Fe tag at the C-terminus was also purchased from AcroBiosystems (PD1-H5257). PD-L1 and PD-1 proteins were diluted in the assay buffer and 10 μL was added to the plate well. Plates were centrifuged and proteins were preincubated with inhibitors for 40 minutes. The incubation was followed by the addition of 10 μL of HTRF detection buffer supplemented with Europium cryptate-labeled anti-human IgG (PerkinElmer-AD0212) specific for Fe and anti-His antibody conjugated to SureLight®-Allophycocyanin (APC, PerkinElmer-AD0059H). After centrifugation, the plate was incubated at 25° C. for 60 min. before reading on a PHERAstar FS plate reader (665 nm/620 nm ratio). Final concentrations in the assay were—3 nM PD1, 10 nM PD-L1, 1 nM europium anti-human IgG and 20 nM anti-His-Allophycocyanin. IC50 determination was performed by fitting the curve of percent control activity versus the log of the inhibitor concentration.

PD-1/PD-L1, sequence (Q9NZQ7 19-238): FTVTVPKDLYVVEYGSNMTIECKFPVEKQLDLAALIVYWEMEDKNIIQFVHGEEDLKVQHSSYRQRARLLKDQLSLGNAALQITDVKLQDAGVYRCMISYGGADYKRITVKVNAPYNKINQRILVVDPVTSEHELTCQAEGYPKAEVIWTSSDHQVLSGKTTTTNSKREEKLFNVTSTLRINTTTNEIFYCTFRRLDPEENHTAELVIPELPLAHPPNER

IC50 [nM] | Compound
4.02 | O=C(O)C1CCN(CCN2C(=O)COc3cc(-c4cccc(-c5cccc(-c6ccc7c(c6)OCC(=O)N7CCN6CCC(C(=O)O)C6)c5Cl)c4Cl)ccc32)C1 (stereo not shown) [Compound 469]
10.6 | O=C1COc2cc(-c3cccc(-c4cccc(-c5ccc6c(c5)OCC(=O)N6C[C@@H]5CCCCN5)c4Cl)c3Cl)ccc2N1C[C@@H]1CCCCN1 [Compound 558]
305 | N#CCN1C(=O)COc2cc(-c3cccc(-c4cccc(-c5ccc6c(c5)OCC(=O)N6CC#N)c4Cl)c3Cl)ccc21 [Compound 397, 2,2′-((2,2′-dichloro-[1,1′-biphenyl]-3,3′-diyl)bis(3-oxo-2,3-dihydro-4H-benzo[b][1,4]oxazine-7,4-diyl))diacetonitrile]
10.5 | CC(=O)NCCNCCN1C(=O)COc2cc(-c3cccc(-c4cccc(-c5ccc6c(c5)OCC(=O)N6C[C@@H]5CCCN5)c4Cl)c3Cl)ccc21 [Compound 516]
6.47 | O=C1CC(CN2C(=O)COc3cc(-c4cccc(-c5cccc(-c6ccc7c(c6)OCC(=O)N7C[C@@H]6CCC(=O)N6)c5Cl)c4Cl)ccc32)CN1 (stereo partly shown) [Compound 450]
9.78 | O=C1CC[C@@H](CN2C(=O)COc3cc(-c4cccc(-c5cccc(-c6cnc7c(c6)OCC(=O)N7C[C@@H]6CCC(=O)N6)c5Cl)c4Cl)cnc32)N1 [Compound 401]
69.7 | O=C1COc2cc(-c3cccc(-c4cccc(-c5ccc6c(c5)OCC(=O)N6CCO)c4Cl)c3Cl)ccc2N1CCO [Compound 378]
200 | O=C1CC[C@@H](CN2C(=O)COc3cc(-c4cccc(-c5cccc(-c6cc(Cl)c7c(c6)OCC(=O)N7C[C@@H]6CCC(=O)N6)c5Cl)c4Cl)cc(Cl)c32)N1 [Compound 376]
287 | O=C(O)C1CCC(=O)N1CCN1C(=O)COc2cc(-c3cccc(-c4cccc(-c5ccc6c(c5)OCC(=O)N6CCN5C(=O)CCC5C(=O)O)c4Cl)c3Cl)ccc21 (stereo not shown) [Compound 573]
6.31 | CC(=O)NCCNCCN1C(=O)COc2cc(-c3cccc(-c4cccc(-c5ccc6c(c5)OCC(=O)N6C[C@@H]5CCC(=O)N5)c4Cl)c3Cl)ccc21 [Compound 489]
11.7 | O=C1CC[C@@H](CN2C(=O)COc3cc(-c4cccc(-c5cccc(-c6cc(F)c7c(c6)OCC(=O)N7C[C@@H]6CCC(=O)N6)c5Cl)c4Cl)cc(F)c32)N1 [Compound 396]
8.98 | O=C1COc2cc(-c3cccc(-c4cccc(-c5ccc6c(c5)OCC(=O)N6C[C@@H]5COCCN5)c4Cl)c3Cl)ccc2N1C[C@@H]1CCCCN1 [Compound 559]
104 | O=C1COc2cc(-c3cccc(-c4cccc(-c5ccc6c(c5)OCC(=O)N6Cc5ncc[nH]5)c4Cl)c3Cl)ccc2N1Cc1ncc[nH]1 [Compound 415]
7.22 | O=C1COc2cc(-c3cccc(-c4cccc(-c5ccc6c(c5)OCC(=O)N6C[C@H]5CCNC5)c4Cl)c3Cl)ccc2N1C[C@H]1CCNC1 [Compound 531]
9.41 | O=C1C[C@@H](NCCN2C(=O)COc3cc(-c4cccc(-c5cccc(-c6ccc7c(c6)OCC(=O)N7CCN[C@H]6COC(=O)C6)c5Cl)c4Cl)ccc32)CO1 [Compound 527]
3.51 | O=C(O)CCCCNCCN1C(=O)COc2cc(-c3cccc(-c4cccc(-c5ccc6c(c5)OCC(=O)N6CCNCCCCC(=O)O)c4Cl)c3Cl)ccc21 [Compound 490]
≥ 3000 | COC(=O)N[C@H](C(=O)N1CCC[C@H]1CN1C(=O)COc2cc(-c3cccc(-c4cccc(-c5ccc6c(c5)OCC(=O)N6C[C@@H]5CCCN5C(=O)[C@@H](NC(=O)OC)C(C)C)c4Cl)c3Cl)ccc21)C(C)C [Compound 422]

More lines, now with the values behind:

Compound | IC50 [nM]
O=C1COc2cc(-c3cccc(-c4cccc(-c5ccc6c(c5)OCC(=O)N6CCn5cccn5)c4Cl)c3Cl)ccc2N1CCn1cccn1 [Compound 375] | 2710
O=C1CC[C@H](CN2C(=O)COc3cc(-c4cccc(-c5cccc(-c6ccc7c(c6)OCC(=O)N7C[C@H]6CCC(=O)N6)c5Cl)c4Cl)ccc32)N1 [Compound 448] | 5.45
CC1(C)Oc2cc(-c3cccc(-c4cccc(-c5ccc6c(c5)OC(C)(C)C(=O)N6C[C@@H]5CCC(=O)N5)c4Cl)c3Cl)ccc2N(C[C@@H]2CCC(=O)N2)C1=O [Compound 372] | ≥ 3000
O=C(O)[C@@H]1C[C@@H](O)CN1CCN1C(=O)COc2cc(-c3cccc(-c4cccc(-c5ccc6c(c5)OCC(=O)N6CCN5C[C@@H](O)C[C@H]5C(=O)O)c4Cl)c3Cl)ccc21 [Compound 482] | 6.72
O=C1CC[C@@H](CN2C(=O)COc3nc(-c4cccc(-c5cccc(-c6ccc7c(n6)OCC(=O)N7C[C@@H]6CCC(=O)N6)c5Cl)c4Cl)ccc32)N1 [Compound 457] | 8.78
CN(CCO)CCN1C(=O)COc2cc(-c3cccc(-c4cccc(-c5ccc6c(c5)OCC(=O)N6CCN(C)CCO)c4Cl)c3Cl)ccc21 [Compound 471] | 4.7
O=C1CCCN1CCN1C(=O)COc2cc(-c3cccc(-c4cccc(-c5ccc6c(c5)OCC(=O)N6CCN5CCCC5=O)c4Cl)c3Cl)ccc21 [Compound 394] | 471
O=C(O)[C@@H]1C[C@H](O)CN1CCN1C(=O)COc2cc(-c3cccc(-c4cccc(-c5ccc6c(c5)OCC(=O)N6CCN5C[C@@H](O)C[C@H]5C(=O)O)c4Cl)c3Cl)ccc21 [Compound 478] | 8.76
N#Cc1cncc(CCN2C(=O)COc3cc(-c4cccc(-c5cccc(-c6ccc7c(c6)OCC(=O)N7CCc6cncc(C#N)c6)c5Cl)c4Cl)ccc32)c1 [Compound 427] | 68.7
O=C1N[C@@H](CN2C(=O)COc3cc(-c4cccc(-c5cccc(-c6ccc7c(c6)OCC(=O)N7C[C@H]6COC(=O)N6)c5Cl)c4Cl)ccc32)CO1 [Compound 413] | 7.05
O=C(O)C1CCCCN1CCN1C(=O)COc2cc(-c3cccc(-c4cccc(-c5ccc6c(c5)OCC(=O)N6CCN5CCCCC5C(=O)O)c4Cl)c3Cl)ccc21 (stereo not shown) [Compound 513] | 8.23
CC(C)[C@H](N)C(=O)N1CCC[C@H]1CN1C(=O)COc2cc(-c3cccc(-c4cccc(-c5ccc6c(c5)OCC(=O)N6C[C@@H]5CCCN5C(=O)[C@@H](N)C(C)C)c4Cl)c3Cl)ccc21 [Compound 459] | 436
O=C(O)C1CCN(CCN2C(=O)COc3cc(-c4cccc(-c5cccc(-c6ccc7c(c6)OCC(=O)N7CCNCCO)c5Cl)c4Cl)ccc32)C1 (stereo not shown) [Compound 493] | 5.59
CC(C)(C)OC[C@H](NCCN1C(=O)COc2cc(-c3cccc(-c4cccc(-c5ccc6c(c5)OCC(=O)N6CCN[C@@H](COC(C)(C)C)C(=O)O)c4Cl)c3Cl)ccc21)C(=O)O [Compound 571] | 16
O=C1NCCN1CCN1C(=O)COc2cc(-c3cccc(-c4cccc(-c5ccc6c(c5)OCC(=O)N6CCN5CCNC5=O)c4Cl)c3Cl)ccc21 [Compound 384] | 260
O=C1COc2cc(-c3cccc(-c4cccc(-c5ccc6c(c5)OCC(=O)N6Cc5nn[nH]n5)c4Cl)c3Cl)ccc2N1Cc1nn[nH]n1 [Compound 412] | ≥ 3000
O=C1CC[C@@H](CN2C(=O)COc3cc(-c4cccc(-c5cccc(-c6ccc7c(c6)OCC(=O)N7CCN6CC[C@H](O)C6)c5Cl)c4Cl)ccc32)N1 [Compound 492] | 3.15
O=C1COc2cc(-c3cccc(-c4cccc(-c5ccc6c(c5)OCC(=O)N6CCn5cncn5)c4Cl)c3Cl)ccc2N1CCn1cncn1 [Compound 374] | 68.2
O=C(O)CNCCCN1C(=O)COc2cc(-c3cccc(-c4cccc(-c5ccc6c(c5)OCC(=O)N6CCCNCC(=O)O)c4Cl)c3Cl)ccc21 [Compound 479] | 6.02
N#Cc1cncc(CN2C(=O)COc3cc(-c4cccc(-c5cccc(-c6ccc7c(c6)OCC(=O)N7Cc6cncc(C#N)c6)c5Cl)c4Cl)ccc32)c1 [Compound 430] | ≥ 3000
O=C(O)[C@H]1C[C@@H](O)CN1CCN1C(=O)COc2cc(-c3cccc(-c4cccc(-c5ccc6c(c5)OCC(=O)N6CCN5C[C@H](O)C[C@@H]5C(=O)O)c4Cl)c3Cl)ccc21 [Compound 484] | 6.53
O=C1CC[C@@H](CN2C(=O)COc3cc(-c4cccc(-c5cccc(-c6ccc7c(c6)OCC(=O)N7CCN6C[C@H](O)C[C@@H]6C(=O)O)c5Cl)c4Cl)ccc32)N1 [Compound 488] | 6.2
O=C1CC[C@@H](CN2C(=O)COc3nc(-c4cccc(-c5cccc(-c6cnc7c(n6)OCC(=O)N7C[C@@H]6CCC(=O)N6)c5Cl)c4Cl)cnc32)N1 [Compound 466] | 5
O=C1COc2cc(-c3cccc(-c4cccc(-c5ccc6c(c5)OCC(=O)N6CCN5CCNC5=O)c4Cl)c3Cl)ccc2N1 [Compound 385] | 264
Cc1c(-c2ccc3c(c2)OCC(=O)N3CCN2C[C@H](O)C[C@H]2C(=O)O)cccc1-c1cccc(-c2ccc3c(c2)OCC(=O)N3CCN2C[C@H](O)C[C@H]2C(=O)O)c1C [Compound 514] | 4.46
O=C1CC[C@@H](CN2CCCc3cc(-c4cccc(-c5cccc(-c6ccc7c(c6)CCCN7C[C@@H]6CCC(=O)N6)c5Cl)c4Cl)ccc32)N1 [Compound 303] | 187
CC(=O)NCCNCCN1C(=O)COc2cc(-c3cccc(-c4cccc(-c5ccc6c(c5)OCC(=O)N6CCNCCNC(C)=O)c4Cl)c3Cl)ccc21 [Compound 461] | 4.06
O=C1COc2cc(-c3cccc(-c4cccc(-c5ccc6c(c5)OCC(=O)N6C[C@@H]5CCCN5)c4Cl)c3Cl)ccc2N1CCN1CC[C@H](O)C1 [Compound 515] | 8.71
O=C1CC[C@@H](Cn2c(=O)cnc3cc(-c4cccc(-c5cccc(-c6ccc7c(c6)ncc(=O)n7C[C@@H]6CCC(=O)N6)c5Cl)c4Cl)ccc32)N1 [Compound 361] | 1.75

— patent US20250340529A1, “Heterocyclic Compounds as Immunomodulators of PD-L1 Interactions” (Ascletis BioScience Co., Ltd, priority 2021, published 2025)
